Test results from article PMC13410438, “Self‐Assembling Cationic Lipopeptides for the Construction of Functional Vesicular Gene‐Delivery Systems” (Small (Weinheim an Der Bergstrasse, Germany), 2026).
Square brackets hold non-standard residues; d marks the D form. Peptide text beside a SMILES is read from it. * marks the point of attachment. Oleoyl = CCCCCCCC/C=C\CCCCCCCC(=O)*; Dap = NC[C@H](N)C(=O)O

How the values were obtained:
iMSCs [1] = assay: Cell viability after pGFP transfection (cell number vs untransfected control); type: cell-based; details: pGFP complexes, LP1 100 µg/mL, LP2 40 µg/mL
Procedure: In parallel, in situ transfection of iMSCs was evaluated by confocal microscopy (Nikon, Tokyo, Japan) based on GFP expression (Figure 7a). Transfection efficiency was quantified using ImageJ software by calculating the percentage of GFP‐positive cells relative to the total number of cells in four randomly selected fields per condition (Figure 7b). Cell viability was determined by comparing the number of cells in each sample with that of the untransfected control (Figure 7c).

iMSCs [2] = assay: Cell viability (CCK8) after lipopeptide/placZ transfection; type: cell-based; details: 24 h
Procedure: (§1) Lipopeptide (LP1 or LP2) was dissolved in MeOH in order to create a lipid film with a desired concentration. Afterwards, the organic solvent was removed under nitrogen flow, obtaining the corresponding lipid film. The film was then hydrated with 1 mL of OptiMEM Reduced Serum Medium (1X). Lipopeptide/pDNA complexes were then formed by mixing placZ or pGFP plasmid (742 ng) with the corresponding lipopeptide (LP1 or LP2) solution to obtain various concentrations (2.5–50 µg/mL), thus being able to carry out different analysis. All mixtures were allowed to complex for 30 min at rt before being used in different experiments. Lipofectamine was used as positive control; their corresponding lipoplexes were prepared with the same plasmid concentrations and the recommended reagent volume, according to the manufacturer instructions.
(§2) HEK 293T (75000 cells/well in 48 well‐plates) or iMSCs (10000 cells/well in 96 well‐plates) were allowed to attach for 24 h at 37 °C before the experiments. Then, cells were transfected with lipopeptide (LP1 or LP2)/pDNA (placZ or pGFP) complexes and incubated for 24 h at 37 °C and 5% CO2. Untransfected cells (negative control) or cells transfected with Lipofectamine (positive control) were assessed in parallel. All conditions were evaluated by quadrupled.
(§3) Viability of the cell monolayers was monitored at 24 h using the CCK8 reagent, following the supplier's instructions (Neo Biotech, France). Briefly, cells were washed with 1X PBS (pH 7.4), and then incubated with CCK8 reagent (100 µL; 1:10 dilution in DMEM) for at least 2 h at 37 °C and 5% CO2. The absorbance (Abs) signal at 450 nm was measured in a Sinergy HTX Plate reader. Cell viability was obtained with the following formula: Cellviability%=Abssample450nm/Abscontrol450nm×100

HEK 293T cells = assay: as above; type: cell-based; details: 24 h
Procedure: as §1, §2, §3

Row | SMILES | Z-potential | cytotoxicity / cell viability compared with LPF (iMSCs [1]) | cell viability (iMSCs [2]) | cell viability (HEK 293T cells)
1 | CCCCCCCC/C=C\CCCCCCCC(=O)NCCCC[C@H](NC(=O)CCCCCCC/C=C\CCCCCCCC)C(=O)N[C@@H](CCCCN)C(=O)N[C@@H](CCCCN)C(=O)N[C@@H](CCCCN)C(=O)O [LP2, Dioleoyl‐KKKK] (Oleoyl-K(Oleoyl)KKK-OH) | 25.2 mV | higher than in the LPF group | above 75% | above 75%
2 | CCCCCCCC/C=C\CCCCCCCC(=O)NC[C@H](NC(=O)CCCCCCC/C=C\CCCCCCCC)C(=O)N[C@@H](CCCCN)C(=O)N[C@@H](CCCCN)C(=O)N[C@@H](CCCCN)C(=O)O [LP1, Dioleoyl‐DapKKK] (Oleoyl-[Dap](Oleoyl)KKK-OH) | 25.2 mV | higher cytotoxicity than LPF | above 75% | above 75%
